The record followed here is ChEMBL document CHEMBL3045820, “Discovery of a novel histone deacetylase 8 inhibitor by virtual screening” (Med Chem Res, 2012).

In the experiment the target is T1, Histone deacetylase 8 (Homo sapiens, UniProt Q9BY41).
T1 sequence (Q9BY41 whole entry): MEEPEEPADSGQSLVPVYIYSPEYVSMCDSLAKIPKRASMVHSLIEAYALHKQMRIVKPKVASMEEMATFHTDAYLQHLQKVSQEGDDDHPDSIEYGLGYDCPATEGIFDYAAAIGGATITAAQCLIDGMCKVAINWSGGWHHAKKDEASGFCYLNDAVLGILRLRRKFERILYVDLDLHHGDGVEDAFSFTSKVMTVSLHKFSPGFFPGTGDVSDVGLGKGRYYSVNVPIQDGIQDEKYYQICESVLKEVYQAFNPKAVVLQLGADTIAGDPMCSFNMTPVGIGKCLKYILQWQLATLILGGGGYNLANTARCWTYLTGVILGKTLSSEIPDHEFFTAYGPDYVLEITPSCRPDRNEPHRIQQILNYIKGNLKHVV
Description: Inhibition of HDAC8 (unknown origin) expressed in Escherichia coli using Boc-Lys (acetyl)-AMC as substrate incubated for 5 min prior to substrate addition measured after 30 min by fluorescence assay.

As usually defined, the IC50 is the concentration that inhibits the measured activity by half. Low values mean higher potency, high ones lower potency. `COc1cc(C(=O)NN)ccc1COc1ccc(Cl)c(C)c1` showed an IC50 of 1600 nM.
